Entries after “also recorded” stand apart in the source; their conditions may differ.
How the values were obtained:
[1] = system: isolated perfused heart; test: Langendorff perfused heart: left ventricle contractile function and heart rate; format: in vivo, rat; conditions: for left ventricle contractile function (systolic pressure, developed pressure, dp/dt, -dp/dt): peptide 25 μM with 0.1 μM isoproterenol, vs isoproterenol alone
Source text: In Vivo Experimental Langendorff Model: Male Sprague-Dawley rats weighing 250-300 g (Charles River, Boston, Mass.) were used in this study; the protocol is based on that described by Tompkins et al., “Mitochondrial Dysfunction in Cardiac Ischemia-Reperfusion Injury: ROS From Complex I, Without Inhibition,” Biochim Biophys Acta 1762:223-231 (2006), which is hereby incorporated by reference in its entirety, with minor modification. The rats were fed a standard rat chow and had water ad libitum. All experiments were approved by the University of Rochester Institutional Animal Care and Use Committee. Rats were given two subcutaneous injections of isoproterenol (ISO) (0.01 mg/kg), 6 hours apart, then anesthetized with freshly prepared Avertin (2,2,2-tribromoethanol, […] injected intraperitoneally), and treated with heparin (5000 U/kg), i.p., to protect the heart against microthrombi. The aorta was cannulated in situ with a 22-gauge needle filled with warm Krebs-Henseleit (KH) buffer. The heart was rapidly transferred (<10 s.) to a perfusion apparatus, and retrograde (Langendorff) perfusion begun with 37° C. KH buffer gassed with 95% O2 plus 5% CO2, in constant flow mode (12 ml/min). Perfusion was performed using 0.1 μM ISO or KH buffer as a control; the hBVR-derived peptides KKRILHC^281 (25 μM) or KYCCSRK^296 (25 μM) were included in perfusion medium with or without ISO. Hemodynamics and heart rate were recorded by inserting a water-filled balloon connected to a transducer (Radnoti LLC, model no. 159904B) into the left ventricle. The transducer was connected to a data acquisition system (DATAQ Instrument, Akron Ohio, Model: DI-205). At the end of each experiment, the heart was cut into 5 μm sections for TUNEL study or homogenized for western blots.
The effect of peptides on the integrity of the heart was also examined in the perfusion system, by measuring left ventricle contractile function in the presence of isoproterenol as a function of time.

[2] = system: cardiomyocytes in the intact heart; test: Langendorff perfused heart: apoptosis (TUNEL, genomic DNA fragmentation); format: in vivo, rat; conditions: for apoptosis in cardiomyocytes of the perfused heart (TUNEL): 0.1 μM ISO, peptides 25 μM together with ISO
Source text: Analysis of Apoptosis: The terminal deoxyribonucleotide transferase-mediated dUTP nick-end labeling (TUNEL) assay was used to detect in situ DNA fragmentation, using the In Situ Cell Death Detection Kit (Roche) as described previously (Ding et al., “Functional Role of Phosphodiesterase 3 in Cardiomyocyte Apoptosis: Implication in Heart Failure,” Circulation 111:2469-2476 (2005), which are hereby incorporated by reference in their entirety). In addition, the cells were stained for cardiomyocyte-specific sarcomeric α-actinin with the antibody EF-53 to distinguish cardiomyocytes from contaminating fibroblasts; and only EF-53 positive cells were counted. Three independent experiments were performed and an average of 1,000 EF-53 positive cells from random fields were analyzed.
DNA Electrophoresis: Total cellular DNA was isolated from untreated and treated cells by lysis in 10 mM Tris-HCl, pH 7.8; 1 mM, EDTA, 10 mM NaCl, 1% (w/v) SDS and 1 mg/ml proteinase K at 60° C. for 2 hours. The lysate was extracted twice each with phenol-choloroform (1:1, v/v) and chloroform, followed by precipitation with ethanol. The precipitate was collected by centrifugation, washed once in 70% ethanol, and resuspended in TE containing 1 mg/ml RNase at 37° C. for 30 min. DNA was resolved by electrophoresis in 2.0% agarose gels containing ethidium bromide.
In Vivo Experimental Langendorff Model: Male Sprague-Dawley rats weighing 250-300 g (Charles River, Boston, Mass.) were used in this study; the protocol is based on that described by Tompkins et al., “Mitochondrial Dysfunction in Cardiac Ischemia-Reperfusion Injury: ROS From Complex I, Without Inhibition,” Biochim Biophys Acta 1762:223-231 (2006), which is hereby incorporated by reference in its entirety, with minor modification. The rats were fed a standard rat chow and had water ad libitum. All experiments were approved by the University of Rochester Institutional Animal Care and Use Committee. Rats were given two subcutaneous injections of isoproterenol (ISO) (0.01 mg/kg), 6 hours apart, then anesthetized with freshly prepared Avertin (2,2,2-tribromoethanol, […] injected intraperitoneally), and treated with heparin (5000 U/kg), i.p., to protect the heart against microthrombi. The aorta was cannulated in situ with a 22-gauge needle filled with warm Krebs-Henseleit (KH) buffer. The heart was rapidly transferred (<10 s.) to a perfusion apparatus, and retrograde (Langendorff) perfusion begun with 37° C. KH buffer gassed with 95% O2 plus 5% CO2, in constant flow mode (12 ml/min). […] Hemodynamics and heart rate were recorded by inserting a water-filled balloon connected to a transducer (Radnoti LLC, model no. 159904B) into the left ventricle. […]

[3] = molecular target: T1, BVR (Rattus norvegicus, UniProt P46844); test: Langendorff perfused heart: BVR activity (biliverdin to bilirubin, pH 6.7); format: in vivo
T1 construct: Cardiomyocytes and heart tissue samples were lysed in buffer containing 100 mM sodium phosphate pH 7.4; from tissue; host or cells: isolated Langendorff-perfused rat heart, lysate
T1 sequence (P46844 3-295): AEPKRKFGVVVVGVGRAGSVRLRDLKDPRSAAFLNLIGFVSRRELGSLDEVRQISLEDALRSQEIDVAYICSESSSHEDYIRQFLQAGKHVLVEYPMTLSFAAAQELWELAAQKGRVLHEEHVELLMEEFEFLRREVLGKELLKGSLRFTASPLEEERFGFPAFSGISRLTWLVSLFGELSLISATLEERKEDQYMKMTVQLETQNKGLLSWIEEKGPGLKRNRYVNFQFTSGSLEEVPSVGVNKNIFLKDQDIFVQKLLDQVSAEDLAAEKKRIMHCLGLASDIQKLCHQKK
Source text: In Vivo Experimental Langendorff Model: Male Sprague-Dawley rats weighing 250-300 g (Charles River, Boston, Mass.) were used in this study; the protocol is based on that described by Tompkins et al., “Mitochondrial Dysfunction in Cardiac Ischemia-Reperfusion Injury: ROS From Complex I, Without Inhibition,” Biochim Biophys Acta 1762:223-231 (2006), which is hereby incorporated by reference in its entirety, with minor modification. The rats were fed a standard rat chow and had water ad libitum. All experiments were approved by the University of Rochester Institutional Animal Care and Use Committee. Rats were given two subcutaneous injections of isoproterenol (ISO) (0.01 mg/kg), 6 hours apart, then anesthetized with freshly prepared Avertin (2,2,2-tribromoethanol, […] injected intraperitoneally), and treated with heparin (5000 U/kg), i.p., to protect the heart against microthrombi. The aorta was cannulated in situ with a 22-gauge needle filled with warm Krebs-Henseleit (KH) buffer. The heart was rapidly transferred (<10 s.) to a perfusion apparatus, and retrograde (Langendorff) perfusion begun with 37° C. […] Hemodynamics and heart rate were recorded by inserting a water-filled balloon connected to a transducer (Radnoti LLC, model no. 159904B) into the left ventricle. […]
Measurement of BVR Activity: Cardiomyocytes and heart tissue samples were lysed in buffer containing 100 mM sodium phosphate pH 7.4, 1% Nonidet-P-40, 10% glycerol, 0.2 mM dithiothoeitol, 10 mM NaF, protease inhibitor mixture (10 μg/ml aprotinin, 10 μg/ml leupeptin, 10 μg/ml pepstatin, and 0.1 mM phenylmethylsulfonyl fluoride). BVR activity was measured at pH 6.7 as described previously (Huang et al., “Detection of 10 Variants of Biliverdin Reductase in Rat Liver by Two-Dimensional Gel Electrophoresis,”J Biol Chem 264:7844-7849 (1989), which is hereby incorporated by reference in its entirety). The rate of conversion of biliverdin to bilirubin was determined as the increase in absorbance at 450 nm at 25° C. Specific activity is expressed as nanomoles of bilirubin/min/mg of protein. […]

[4] = peptide 25 μM with isoproterenol

Compound | heart rate, left ventricular systolic pressure, development pressure, dp/dt, -dp/dt over the course of the experiment ([1]; 0.1 μM isoproterenol perfusion) | apoptosis in cardiomyocytes of the perfused heart (TUNEL) [2] | left ventricle contractile function (systolic pressure, developed pressure, dp/dt, -dp/dt) [1] | change in heart rate observed with isoproterenol alone [1, 4] | BVR activity ([3]; peptide 25 μM alone) | BVR reductase activity ([3]; peptide 25 μM and 0.1 μM ISO) | time after initiating perfusion by which the increased rate of decline was observed [1, 4] | BVR activity ([3]; peptide 25 μM, whether ISO was present or not) | fragmentation of genomic DNA from perfused heart ([2]; peptide 25 μM with ISO)
CC(C)NCC(O)c1ccc(O)c(O)c1 (stereo not shown) [isoproterenol] | declined | increased apoptosis | – | – | – | – | – | – | –
KYCCSRK (biliverdin reductase peptide) [KYCCSRK^296] | – | decreased apoptosis; also recorded: nearly complete reduction in apoptosis | slowed the decrease in contractile function; also recorded: improved cardiac function | Neither peptide affected the change in heart rate | increased BVR activity | significant activation | – | – | –
KKRILHC (biliverdin reductase peptide) [KKRILHC^281] | – | increase in apoptosis; also recorded: significant increases in apoptosis | the rate of decline was increased; also recorded: significantly diminished cardiac function | Neither peptide affected the change in heart rate | – | – | ≤ 30 min | blocked the activity of BVR | fragmentation is detectable

From patent US20100303790A1, “USE OF BILIVERDIN REDUCTASE (BVR) AND BVR PEPTIDE FRAGMENTS TO TREAT CORONARY DISORDERS” (UNIVERSITY OF ROCHESTER, priority 2009, published 2010)
